In ChEMBL document CHEMBL4152189, “Incorporation of nitric oxide donor into 1,3-dioxyxanthones leads to synergistic anticancer activity” (Eur J Med Chem, 2018):
pIC50: −log10 of the molar value. Activity calls are given as the source filed them. No cut-off for these calls is given here.

What was measured:
HepG2 [1] = assay: Induction of NO generation in human HepG2 cells assessed as nitrite levels at 0.66 uM after 48 hrs by Griess assay (reference value: 12.8 +/- 1.7 uM); assay type: functional
HepG2 [2] = assay: Induction of apoptosis in human HepG2 cells assessed as late apoptotic/necrotic cells at 0.66 uM after 24 hrs by Annexin-V/propidium iodide staining-based flow cytometric analysis; assay type: functional
[3] = Selectivity index, ratio of IC50 for human HL-7702 cells to IC50 for human HepG2 cells; assay type: toxicity; settings: HL-7702 cells versus HepG2 cells, read-out: Ratio IC50
HepG2 [4] = assay: Induction of NO generation in human HepG2 cells assessed as nitrite levels at 0.33 uM after 3 hrs by Griess assay (reference value: 12.8 +/- 1.5 uM); assay type: functional
L02 [5] = assay: Induction of NO generation in human HL-7702 cells assessed as nitrite levels at 0.66 uM after 48 hrs by Griess assay (reference value: 11.6 +/- 1.1 uM); assay type: functional
L02 [6] = assay: Induction of NO generation in human HL-7702 cells assessed as nitrite levels at 0.66 uM after 6 hrs by Griess assay (reference value: 11.8 +/- 1.1 uM); assay type: functional
HepG2 [7] = assay: Induction of apoptosis in human HepG2 cells assessed as inhibition of p53-MDM2 interaction by measuring upregulation of p53 expression after 24 hrs by Western blot analysis; assay type: functional, cell-based
HepG2 [8] = assay: Induction of apoptosis in human HepG2 cells assessed as early apoptotic cells at 0.33 uM after 24 hrs by Annexin-V/propidium iodide staining-based flow cytometric analysis; assay type: functional
L02 [9] = assay: Induction of NO generation in human HL-7702 cells assessed as nitrite levels at 0.66 uM after 24 hrs by Griess assay (reference value: 11.6 +/- 1.1 uM); assay type: functional
HepG2 [10] = assay: Induction of apoptosis in human HepG2 cells at 0.16 uM after 24 hrs by Annexin-V/propidium iodide staining-based flow cytometric analysis; assay type: functional
MCF7 = assay: Growth inhibition of human MCF7 cells after 24 hrs by MTT assay; assay type: functional, cell-based; settings: MCF7, 24 h
HepG2 [11] = assay: Induction of apoptosis in human HepG2 cells assessed as increase in cleaved caspase9 level up to 0.66 uM after 24 hrs by Western blot analysis; assay type: functional, cell-based
HepG2 [12] = assay: Induction of NO generation in human HepG2 cells assessed as nitrite levels at 0.66 uM after 60 hrs by Griess assay (reference value: 12.8 +/- 1.5 uM); assay type: functional
HepG2 [13] = assay: Induction of NO generation in human HepG2 cells assessed as nitrite levels at 0.33 uM after 1 hr by Griess assay (reference value: 12.9 +/- 1.5 uM); assay type: functional
HepG2 [14] = assay: Induction of NO generation in human HepG2 cells assessed as nitrite levels at 0.16 uM after 6 hrs by Griess assay (reference value: 12.6 +/- 1.1 uM); assay type: functional
HepG2 [15] = assay: Induction of NO generation in human HepG2 cells assessed as nitrite levels at 0.16 uM after 24 hrs by Griess assay (reference value: 12.8 +/- 1.7 uM); assay type: functional
HepG2 [16] = assay: Induction of NO generation in human HepG2 cells assessed as nitrite levels at 0.66 uM after 1 hr by Griess assay (reference value: 12.9 +/- 1.5 uM); assay type: functional
HepG2 [17] = assay: Cell cycle arrest in human HepG2 cells assessed as accumulation at S phase at 0.16 to 0.66 uM after 24 hrs by propidium iodide/RNAse staining-based flow cytometric analysis; assay type: functional
HepG2 [18] = assay: Induction of apoptosis in human HepG2 cells assessed as increase in cleaved PARP level up to 0.66 uM after 24 hrs by Western blot analysis; assay type: functional, cell-based
MDA-MB-231 = assay: Growth inhibition of human MDA-MB-231 cells after 24 hrs by MTT assay; assay type: functional, cell-based; settings: MDA-MB-231, 24 h
L02 [19] = assay: Induction of NO generation in human HL-7702 cells assessed as nitrite levels at 0.66 uM after 12 hrs by Griess assay (reference value: 11.8 +/- 1.2 uM); assay type: functional
HepG2 [20] = assay: Induction of apoptosis in human HepG2 cells assessed as inhibition of p53-MDM2 interaction by measuring p53/MDM2 ratio at 1 uM after 24 hrs by Western blot analysis (reference value: 0.48); assay type: functional
HepG2 [21] = assay: Induction of NO generation in human HepG2 cells assessed as nitrite levels at 0.33 uM after 6 hrs by Griess assay (reference value: 12.6 +/- 1.1 uM); assay type: functional
HepG2 [22] = assay: Growth inhibition of human HepG2 cells pre-incubated with mtADH inhibitor PCDA for 2.5 hrs followed by 0.66 uM compound treatment for 24 hrs by MTT assay; assay type: functional, cell-based
HepG2 [23] = assay: Induction of NO generation in human HepG2 cells assessed as nitrite levels at 0.16 uM after 1 hr by Griess assay (reference value: 12.9 +/- 1.5 uM); assay type: functional
HepG2 [24] = assay: Growth inhibition of human HepG2 cells pre-incubated with NO scavenger carboxy-PTIO for 1 hr followed by 0.66 uM compound treatment for 24 hrs by MTT assay; assay type: functional, cell-based
HepG2 [25] = assay: Induction of apoptosis in human HepG2 cells assessed as inhibition of p53-MDM2 interaction by measuring downregulation of MDM2 expression at 1 uM after 24 hrs by Western blot analysis; assay type: functional, cell-based
HepG2 [26] = assay: Induction of apoptosis in human HepG2 cells assessed as early apoptotic cells at 0.66 uM after 24 hrs by Annexin-V/propidium iodide staining-based flow cytometric analysis; assay type: functional
HepG2 [27] = assay: Induction of apoptosis in human HepG2 cells assessed as increase in cleaved caspase3 level up to 0.66 uM after 24 hrs by Western blot analysis; assay type: functional, cell-based
HepG2 [28] = assay: Induction of NO generation in human HepG2 cells assessed as nitrite levels at 0.33 uM after 48 hrs by Griess assay (reference value: 12.8 +/- 1.7 uM); assay type: functional
HepG2 [29] = assay: Induction of apoptosis in human HepG2 cells assessed as late apoptotic/necrotic cells at 0.33 uM after 24 hrs by Annexin-V/propidium iodide staining-based flow cytometric analysis; assay type: functional
HepG2 [30] = assay: Induction of NO generation in human HepG2 cells assessed as nitrite levels at 0.33 uM after 12 hrs by Griess assay (reference value: 12.7 +/- 1.8 uM); assay type: functional
HepG2 [31] = assay: Induction of NO generation in human HepG2 cells assessed as nitrite levels at 0.66 uM after 3 hrs by Griess assay (reference value: 12.8 +/- 1.5 uM); assay type: functional
HepG2 [32] = assay: Induction of apoptosis in human HepG2 cells at 0.33 uM after 24 hrs by Annexin-V/propidium iodide staining-based flow cytometric analysis; assay type: functional
NIH3T3 = assay: Growth inhibition of mouse NIH/3T3 cells after 24 hrs by MTT assay; assay type: cell-based; settings: NIH3T3, 24 h
HepG2 [33] = assay: Cell cycle arrest in human HepG2 cells assessed as accumulation at S phase at 0.66 uM after 24 hrs by propidium iodide/RNAse staining-based flow cytometric analysis relative to control; assay type: functional
HepG2 [34] = assay: Growth inhibition of human HepG2 cells after 24 hrs by MTT assay; assay type: functional, cell-based; settings: HepG2, 24 h

COc1cccc2oc3cc(OCCCCCO[N+](=O)[O-])cc(O)c3c(=O)c12
Activity (HepG2 [1]): 28.1 µM
Activity (HepG2 [2]): 41.7%
selectivity ratio [3]: 1140
Activity (HepG2 [4]): 23.2 µM
Activity (L02 [5]): 16.2 µM
Activity (L02 [6]): 17.1 µM
Activity (HepG2 [7]): Dose-dependent effect
Activity (HepG2 [8]): 64.8%
Activity (L02 [9]): 19.4 µM
Activity (HepG2 [10]): 4.6%
pIC50 (MCF7): 4.48
Activity (HepG2 [11]): Dose-dependent effect
Activity (HepG2 [12]): 20.2 µM
Activity (HepG2 [13]): 19.3 µM
Activity (HepG2 [14]): 22.9 µM
Activity (HepG2 [15]): 26.2 µM
Activity (HepG2 [16]): 21.6 µM
Activity (HepG2 [17]): Active
Activity (HepG2 [18]): Dose-dependent effect
pIC50 (MDA-MB-231): 6.24
Activity (L02 [19]): 19.3 µM
Ratio (HepG2 [20]): 6.46
Activity (HepG2 [21]): 29.6 µM
growth inhibition (GI) (HepG2 [22]): inactive
Activity (HepG2 [23]): 15.6 µM
growth inhibition (GI) (HepG2 [24]): inactive
Activity (HepG2 [25]): Active
Activity (HepG2 [26]): 45.1%
Activity (HepG2 [27]): Dose-dependent effect
Activity (HepG2 [28]): 26.6 µM
Activity (HepG2 [29]): 11.8%
Activity (HepG2 [30]): 31.5 µM
Activity (HepG2 [31]): 25.7 µM
Activity (HepG2 [32]): 76.6%
pIC50 (NIH3T3): 3.42
Activity (HepG2 [33]): 93.1%
pIC50 (HepG2 [34]): 6.48
